System: Isolated Rat Bladder Strips
Test: Inhibition of contractions in isolated rat bladder strips (KCl-enhanced contractile activity; smooth muscle relaxation)
Type: cell-based, Sprague-Dawley rats
Settings: for IC50 / percent contraction at 30 µM: 0.5 h; for IC50: isolated rat bladder strips, 15 mM additional KCl, 30 minute challenge, read-out: IC50 (50% inhibition of pre-drug contractile activity); for inhibition at 30 µM / percent contraction at 30 µM: Rattus norvegicus; for inhibition at 30 µM: read-out: Percent inhibition at 30 μM (I); for percent contraction at 30 µM: read-out: Percent contraction at 30 μM (C)
Text: The smooth muscle relaxing activity of the compounds of this invention was established in accordance with standard pharmaceutically accepted test procedures with representative compounds as follows:
Sprague-Dawley rats (150-200 g) are rendered unconscious by CO2 asphyxiation and then euthanized by cervical dislocation. The bladder is removed into warm (37 deg.C) physiological salt solution (PSS) of the following composition (mM): NaCl, 118.4; KCl, 4.7; CaCl2, 2.5; MgSO4, 4.7; H2 O, 1,2; NaHCO3, 24.9; KH2 PO4, 1,2; glucose, 11.1; EDTA, 0.023; gassed with […]; pH 7.4. The bladder is opened and then dut into strips 1-2 mm in width and 7-10 mm in length. The strips are subsequently suspended in a 10 mL tissue bath under an initial resting tension of 1.5 g. The strips are held in place by two surgical clips one of which is attached to a fixed hook while the other is attached to an isometric force transducer. […] The carbachol is then washed out and the tissue allowed to relax to its resting level of activity. Following a further 30 min period of recovery an additional 15 mM KCl are introduced into the tissue bath. This increase in KCl concentration results in a large increase in the amplitude of spontaneous contractions (and initiation of contractions in previously quiescent strips) superimposed upon a small increase in basal tone. Following stabilization of this enhanced level of contractile activity, incremental increases in the concentration of test compound or vehicle are introduced into the tissue bath. Contractile activity is measured for each compound or vehicle concentration during the last minute of a 30 minute challenge.
The isometric force developed by the bladder strips is measured using a […] to elicit 50% inhibition of pre-drug contractile activity (IC50 concentration) and is calculated from this concentration-response curve.

SMILES	IC50 [nM]	inhibition at 30 µM [%]	percent contraction at 30 µM [%]
C[C@@H](Nc1c(NCc2ccc(C#N)c(Cl)c2)c(=O)c1=O)C(C)(C)C [Example 42, 2-Chloro-4-{[3,4-dioxo-2-(1,2,2-trimethyl-pronylamino)-cyclobut-1-enylamino]-methyl}-benzonitrile]	4700 ± 1200		
CCC(C)(C)Nc1c(NCc2c(C)cccc2C)c(=O)c1=O [Example 53, 3-(2,6-Dimethyl-benzylamino)-4-(1,1-dimethyl-propylamino)-cyclobut-3-ene-1,2-dione]	830 ± 660		
Cc1cc(C)c(CNc2c(NC(C)(C)C)c(=O)c2=O)c(C)c1 [Example 9, 3-tert-Butylamino-4-(2,4,6-trimethyl-benzylamino)-cyclobut-3-ene-1,2-dione]	1800 ± 700		
CCC(C)(C)Nc1c(NCc2c(C)cc(C)cc2C)c(=O)c1=O [Example 81, 3-(1,1-Dimethyl-propylamino)-4-(2,4,6-trimethyl-benzylamino)-cyclobut-3-ene-1,2-dione]	310 ± 80		
CCc1cc(CNc2c(N[C@H](C)C(C)(C)C)c(=O)c2=O)ccc1C#N [Example 45, 4-[{3,4-Dioxo-2-(1,2,2-trimethyl-propylamino)-cyclobut-1-enylamino]-methyl}-2-ethyl-benzonitrile]		25 ± 2.04	
Cc1cc(C#N)cc(CNc2c(NC(C)(C)C)c(=O)c2=O)c1 [Example 16, 3-[(2-tert-Butylamino-3,4-dioxo-cyclobut-1-enylamino)-methyl]-5-methyl-benzonitrile]	2900 ± 100		
CC(C)(C)Nc1c(NCc2c(Cl)cccc2Cl)c(=O)c1=O [Example 10, 3-tert-Butylamino-4-(2,6-dichloro-benzylamino)-cyclobut-3-ene-1,2-dione]	1110 ± 410		
Cc1cc(C)cc(CNc2c(NC(C)(C)C)c(=O)c2=O)c1 [Example 86, 3-tert-Butylamino-4-(3,5-dimethyl-benzylamino)-cyclobut-3-ene-1,2-dione]	5100 ± 960		
CCC(C)(C)Nc1c(NCc2ccc(C)c(Cl)c2)c(=O)c1=O [Example 91, 3-(3-Chloro-4-methyl-benzylamino)-4-(1,1-dimethyl-propylamino)-cyclobut-3-ene-1,2-dione]		30.7 ± 6.7	
CCC(C)(C)Nc1c(NCc2ccc(C)c(C)c2)c(=O)c1=O [Example 85, 3-(3A-Dimethyl-benzylamino)-4-(1,1-dimethyl-propylamino)-cyclobut-3-ene-1,2-dione]		35.1 ± 4.4	
CCC(C)(C)Nc1c(NCc2cccc(Cl)c2Cl)c(=O)c1=O [Example 99, 3-(2,3-Dichloro-benzylamino)-4-(1,1-dimethyl-propylamino)-cyclobut-3-ene-1,2-dione]	790 ± 470		
CCCCNc1c(NCc2ccc(C#N)cc2CC)c(=O)c1=O [Example 24, 4-[(2-Butylamino-3,4-dioxo-cyclobut-1-enylamino)-methyl]-3-ethyl-benzonitrile]	27100 ± 4000		
CCCC(=O)N(Cc1ccc(C#N)cc1Cl)c1c(NC(C)(C)CC)c(=O)c1=O [Example 78]	2800 ± 1300	18 ± 6.5	28.5 ± 8.7
CCC(C)(C)Nc1c(NCc2cc(Cl)cc(Cl)c2)c(=O)c1=O [Example 88, 3-(3,5-Dichloro-benzylamino)-4-(1,1-dimethyl-propylamino)-cyclobut-3-ene-1,2-dione]	7300 ± 6000		
Cc1cc(C)c(CNc2c(NC(C)(C)C)c(=O)c2=O)c(Cl)c1 [Example 39, 3-tert-Butylamino-4-(2-chloro-4,6-dimethyl-benzylamino)-cyclobut-3-ene-1,2-dione]	710 ± 500		
COc1cc(CNc2c(NC(C)(C)C)c(=O)c2=O)cc(OC)c1 [Example 22, 3-tert-butylamino-4-(3,5-dimethoxy-benzylamino)-cyclobut-3-ene-1,2-dione]	25000 ± 10000		
CCC(CC)Nc1c(NCc2ccc(OC)c(OC)c2)c(=O)c1=O [Example 14, 3-(3,4-Dimethoxy-benzylamino)-4-(1-ethyl-propylamino)-cyclobut-3-ene-1,2-dione]		27.2 ± 2.4	54
CCC(C)(C)Nc1c(NCc2c(C)cc(C#N)cc2Cl)c(=O)c1=O [Example 33, 3-Chloro-4-{[2-(1,1-dimethyl-propylamino)-3,4-dioxo-cyclobut-1-enylamino]-methyl}-5-methyl-benzonitrile]	160 ± 10		
Cc1cccc(C)c1CNc1c(NCC(F)(F)C(F)(F)F)c(=O)c1=O [Example 54, 3-(2,6-Dimethyl-benzylamino)-4-(2,2,3,3,3-pentafluoro-propylamino)-cyclobut-3-ene-1,2-dione]	17800	46	

Second part, led by results:

IC50 [nM]	SMILES	inhibition at 30 µM [%]	percent contraction at 30 µM [%]
2600 ± 400	CC(C)(C)Nc1c(NCc2cc(F)cc(F)c2)c(=O)c1=O [Example 71, 3-tert-Butyl amino-4-(3,5-difluoro-benzylamino)-cyclobut-3-ene-1,2-dione]		
1500 ± 400	Cc1cc(C#N)ccc1CNc1c(N[C@H](C)C(C)(C)C)c(=O)c1=O [Example 55, 4-{[3,4-Dioxo-2-(1,2,2-trimethyl-propylamino)-cyclobut-1-enylamino]-methyl}-3-methyl-benzonitrile]		
5000 ± 3500	CCC(C)(C)Nc1c(NCc2cccc(C)c2C)c(=O)c1=O [Example 80, 3-(2,3-Dimethyl-benzylamino)-4-(1,1-dimethyl-propylamino)-cyclobut-3-ene-1,2-dione]		
2200 ± 800	CC(C)(C)Nc1c(NCc2ccc(F)c(F)c2)c(=O)c1=O [Example 68, 3-tert-Butylamino-4-(3,4-difluoro-benzylamino)-cyclobut-3-ene-1,2-dione]		
950 ± 750	COc1cc(C#N)ccc1CNc1c(N[C@H](C)C(C)(C)C)c(=O)c1=O [Example 56, 4-{[3,4-Dioxo-2-(1,2,2-trimethyl-propylamino)-cyclobut-1-enylamino]-methyl}-3-methoxy-benzonitrile]		
680 ± 240	CC(C)(C)Nc1c(NCc2cc(Cl)ccc2Cl)c(=O)c1=O [Example 82, 3-tert-Butylamino-4-(2,5-dichloro-benzylamino)-cyclobut-3-ene-1,2-dione]		
1600 ± 770	CCC(C)(C)Nc1c(NCc2ccc(F)c(F)c2)c(=O)c1=O [Example 70, 3-(3,4-Difluoro-benzylamino)-4-(1,1-dimethyl-propylamino)-cyclobut-3-ene-1,2-dione]		
9600 ± 5700	COc1ccc(CNc2c(NC(C)(C)C)c(=O)c2=O)c(OC)c1 [Example 17, 3-tert-Butylamino-4-(2,4-dimethoxy-benzylamino)-cyclobut-3-ene-1,2-dione]		
280 ± 25	CCC(C)(C)Nc1c(NCc2cccc(Cl)c2C)c(=O)c1=O [Example 97, 3-(3-Chloro-2-methyl-benzylamino)-4-(1,1-dimethyl-propylamino)-cyclobut-3-ene-1,2-dione]		
16700 ± 6200	CCc1cc(Br)ccc1CNc1c(N[C@H](C)C(C)(C)C)c(=O)c1=O [Example 47, 3-(4-Bromo-2-ethyl-benzylamino)-4-(1,2,2-trimethyl-propylamino)-cyclobut-3-ene-1,2-dione]		
220 ± 40	CCC(C)(C)Nc1c(NCc2ccc(F)cc2F)c(=O)c1=O [Example 62, 3-(2,4-Difluoro-benzylamino)-4-(1,1-dimethyl-propylamino)-cyclobut-3-ene-1,2-dione]		
105 ± 5	CCc1cc(C#N)ccc1CNc1c(NC(C)(C)CC)c(=O)c1=O [Example 50, 4-[(1,1-Dimethyl-propylamino-3,4-dioxo-cyclobut-1-enylamino)-methyl]-3-ethyl-benzonitrile]		
1700 ± 1000	C[C@@H](Nc1c(NCc2ccc(F)cc2C(F)(F)F)c(=O)c1=O)C(C)(C)C [Example 61, 3-(4-Fluoro-2-trifluoromethyl-benzylamino)-4-(1,2,2-trimethyl-propylamino)-cyclobut-3-ene-1,2-dione]		
1590 ± 270	CC(Nc1c(NCc2ccc(C#N)cc2Cl)c(=O)c1=O)C(C)(C)F (stereo not drawn) [Example 75, 3-Chloro-4-{[2-(2-fluoro-1,2-dimethyl-propylamino)-3,4-dioxo-cyclobut-1-enylamino]-methyl)-benzonitrile]		
750 ± 450	CCC(C)(C)Nc1c(NCc2cc(F)cc(F)c2)c(=O)c1=O [Example 74, 3-(3,5-Difluoro-benzylamino)-4-(1,1-dimethyl-propylamino)-cyclobut-3-ene-1,2-dione]		
6100 ± 3800	CCc1cc(CNc2c(NC(C)(C)C)c(=O)c2=O)ccc1C#N [Example 46, 4-[(2-tert-Butylamino-3,4-dioxo-cyclobut-1-enylamino)-methyl]-2-ethyl-benzonitrile]		
31000 ± 4500	CCc1cc(C#N)ccc1CNc1c(NC(C)C)c(=O)c1=O [Example 25]		
1800 ± 600	CC(C)(C)Nc1c(NCc2ccc(F)cc2C(F)(F)F)c(=O)c1=O [Example 59, 3-tert-Butylamino-4-(4-fluoro-2-trifluoromethyl-benzylamino)-cyclobut-3-ene-1,2-dione]		
270 ± 80	CCc1cc(Br)ccc1CNc1c(NC(C)(C)C)c(=O)c1=O [Example 48, 3-(4-Bromo-2-ethyl-benzylamino)-4-tert-butylamino-cyclobut-3-ene-1,2-dione]		

From patent US5780505A, “Substituted N-arylmethylamino derivatives of cyclobutene-3, 4-diones” (American Home Products Corporation, priority 1997, dated 1998)
